Data published in patent US4451457A, “Cyclodextrin and method for promoting the proliferation of intestinal bifidobacteria” (Kureha Kagaku Kogyo Kabushiki Kaisha, priority 1981, dated 1984).

Assays:
[1] = Acute toxicity, LD50 in mice; assay type: in vivo, Mouse; settings: in vivo, male mouse
Procedure: (§1) Each cyclodextrin (α-, β- and γ-) was administered via the following routes to rats and mice and LD50 was measured.

Mouse = assay: Acute toxicity, LD50 in mice; assay type: in vivo; settings: female mouse
Procedure: as §1

Escherichia coli = assay: Viable count of Escherichia coli in feces of mice; assay type: in vivo, female C3H/He mice; settings: for Rate of proliferation (B/A), Escherichia coli / Viable count 7 days after (B) administration, Escherichia coli: 2.0 g/kg/day; for Rate of proliferation (B/A), Escherichia coli: 7 days after / before; for Viable count 7 days after (B) administration, Escherichia coli / Viable count before (A) administration, Escherichia coli: average of five mice
Procedure: (§2) Each solution or suspension was administered to female C3H/He mice at 8th week after birth, one group consisting of 5 animals and the number of groups being four, the dosage being 2.0 g of cyclodextrin/kg of body weight/day, continuously for 2 weeks.
(§3) Before and 7 days after the administration, feces of each mouse was collected, and after diluting the collected feces with 100 times by weight of an anaerobic phosphate buffer and grinding the diluted feces, each 0.1 ml of the ground feces was inoculated on each culture medium (refer to Table 3) for the specified bacterial species, and the thus inoculated culture media were incubated at 37° C. for one to five days under the aerobic conditions or anaerobic conditions (according to the anaerobic grove box method).
DHL agar aerobic, 37° C., one day
(§4) After the incubation was over, the number of bifidobacteria, Escherichia coli, Lactobacilli and Bacteroides sp. in the culture medium was counted. The results are shown in Tables 4 to 7, the counts being the average of five mice.

Bacteroides sp. = assay: Viable count of Bacteroides sp. in feces of mice; assay type: in vivo, female C3H/He mice; settings: for Rate of proliferation (B/A), Bacteroides sp. / Viable count 7 days after (B) administration, Bacteroides sp.: 2.0 g/kg/day; for Rate of proliferation (B/A), Bacteroides sp.: 7 days after / before; for Viable count 7 days after (B) administration, Bacteroides sp. / Viable count before (A) administration, Bacteroides sp.: average of five mice
Procedure: as §2, §3
NBGT agar same as above
as §4

[2] = Acute toxicity, LD50 in rats; assay type: in vivo, rat; settings: in vivo, male rat
Procedure: as §1

rat = assay: Acute toxicity, LD50 in rats; assay type: in vivo; settings: female rat
Procedure: as §1

Lactobacilli = assay: Viable count of Lactobacilli in feces of mice; assay type: in vivo, female C3H/He mice; settings: for Rate of proliferation (B/A), Lactobacilli / Viable count 7 days after (B) administration, Lactobacilli: 2.0 g/kg/day; for Rate of proliferation (B/A), Lactobacilli: 7 days after / before; for Viable count 7 days after (B) administration, Lactobacilli / Viable count before (A) administration, Lactobacilli: average of five mice
Procedure: as §2, §3, §4

bifidobacteria = assay: Intestinal proliferation of bifidobacteria in mice, viable count in feces; assay type: in vivo, female C3H/He mice; settings: for Rate of proliferation (B/A), bifidobacteria / Viable count 7 days after (B) administration, bifidobacteria: 2.0 g/kg/day; for Rate of proliferation (B/A), bifidobacteria: 7 days after / before; for Viable count 7 days after (B) administration, bifidobacteria / Viable count before (A) administration, bifidobacteria: average of five mice
Procedure: The activity of cyclodextrin in promoting the intestinal proliferation of bifidobacteria was recognized by the results of test as described below. Namely, cyclodextrin was administered orally to test animals such as mouse at the dose of 2 g/kg of body weight per day for 2 weeks, and the number of viable intestinal bacteria such as bifidobacteria, Escherichia coli, Lactobacilli and Bacteroides sp. in the feces of the test animal seven days after the administration were counted by the conventional method. […] Namely, when the bifidobacteria-proliferating agent of the invention is administered to the living body, it is possible to proliferate only bifidobacteria in the intestine of the living body without disturbing the intraintestinal bacterial flora.
as §2, §3
BS agar anaerobic, 37° C., 5 days
as §4

| Compound | LD50 ([1]; ip, intraperitoneal) [mg/kg] | LD50 ([1]; sc, subcutaneous) [mg/kg] | LD50 ([1]; oral) [mg/kg] | LD50 (Mouse; intraperitoneal) [mg/kg] | LD50 (Mouse; oral) [mg/kg] | LD50 (Mouse; subcutaneous) [mg/kg] | Rate of proliferation (B/A), Escherichia coli (Escherichia coli) | Viable count 7 days after (B) administration, Escherichia coli (Escherichia coli) | Viable count before (A) administration, Escherichia coli (Escherichia coli) | Rate of proliferation (B/A), Bacteroides sp. (Bacteroides sp.) | Viable count 7 days after (B) administration, Bacteroides sp. (Bacteroides sp.) | Viable count before (A) administration, Bacteroides sp. (Bacteroides sp.) | LD50 ([2]; ip, intraperitoneal) [mg/kg] | LD50 ([2]; sc, subcutaneous) [mg/kg] | LD50 ([2]; oral) [mg/kg] | LD50 (rat; intraperitoneal) [mg/kg] | LD50 (rat; oral) [mg/kg] | LD50 (rat; subcutaneous) [mg/kg] | Rate of proliferation (B/A), Lactobacilli (Lactobacilli) | Viable count 7 days after (B) administration, Lactobacilli (Lactobacilli) | other results |
| --- | --- | --- | --- | --- | --- | --- | --- | --- | --- | --- | --- | --- | --- | --- | --- | --- | --- | --- | --- | --- | --- |
| OC[C@H]1O[C@@H]2O[C@H]3[C@H](O)[C@@H](O)[C@@H](O[C@H]4[C@H](O)[C@@H](O)[C@@H](O[C@H]5[C@H](O)[C@@H](O)[C@@H](O[C@H]6[C@H](O)[C@@H](O)[C@@H](O[C@H]7[C@H](O)[C@@H](O)[C@@H](O[C@H]8[C@H](O)[C@@H](O)[C@@H](O[C@H]1[C@H](O)[C@H]2O)O[C@@H]8CO)O[C@@H]7CO)O[C@@H]6CO)O[C@@H]5CO)O[C@@H]4CO)O[C@@H]3CO [β-cyclodextrin] | > 900 | > 900 | > 12500 | > 900 | > 12500 | > 900 | 1.45 | 5.8 × 10^6 per g of the feces | 4.0 × 10^6 per g of the feces | 1.06 | 3.7 × 10^8 per g of the feces | 3.5 × 10^8 per g of the feces | > 1200 | > 1500 | > 12000 | > 1200 | > 12000 | > 1500 | 1.47 | 2.2 × 10^9 per g of the feces | Viable count before (A) administration, Lactobacilli (Lactobacilli): 1.5 × 10^9 per g of the feces; Rate of proliferation (B/A), bifidobacteria (bifidobacteria): 1385; Viable count 7 days after (B) administration, bifidobacteria (bifidobacteria): 1.8 × 10^8 per g of the feces; Viable count before (A) administration, bifidobacteria (bifidobacteria): 1.3 × 10^5 per g of the feces |
| OC[C@H]1O[C@@H]2O[C@H]3[C@H](O)[C@@H](O)[C@@H](O[C@H]4[C@H](O)[C@@H](O)[C@@H](O[C@H]5[C@H](O)[C@@H](O)[C@@H](O[C@H]6[C@H](O)[C@@H](O)[C@@H](O[C@H]7[C@H](O)[C@@H](O)[C@@H](O[C@H]8[C@H](O)[C@@H](O)[C@@H](O[C@H]9[C@H](O)[C@@H](O)[C@@H](O[C@H]1[C@H](O)[C@H]2O)O[C@@H]9CO)O[C@@H]8CO)O[C@@H]7CO)O[C@@H]6CO)O[C@@H]5CO)O[C@@H]4CO)O[C@@H]3CO [γ-cyclodextrin] | > 900 | > 900 | > 12500 | > 900 | > 12500 | > 900 | 0.93 | 7.0 × 10^6 per g of the feces | 7.5 × 10^6 per g of the feces | 3.00 | 3.0 × 10^8 per g of the feces | 1.0 × 10^8 per g of the feces | > 1200 | > 1500 | > 12000 | > 1200 | > 12000 | > 1500 | 0.78 | 7.0 × 10^8 per g of the feces | Viable count before (A) administration, Lactobacilli (Lactobacilli): 9.0 × 10^8 per g of the feces; Rate of proliferation (B/A), bifidobacteria (bifidobacteria): 90; Viable count 7 days after (B) administration, bifidobacteria (bifidobacteria): 1.8 × 10^6 per g of the feces; Viable count before (A) administration, bifidobacteria (bifidobacteria): 2.0 × 10^4 per g of the feces |
| dextrin [reference compound] | – | – | – | – | – | – | 0.80 | 7.2 × 10^6 per g of the feces | 9.0 × 10^6 per g of the feces | 2.50 | 8.0 × 10^8 per g of the feces | 3.2 × 10^8 per g of the feces | – | – | – | – | – | – | 1.20 | 6.0 × 10^8 per g of the feces | Viable count before (A) administration, Lactobacilli (Lactobacilli): 5.0 × 10^8 per g of the feces; Rate of proliferation (B/A), bifidobacteria (bifidobacteria): 0.70; Viable count 7 days after (B) administration, bifidobacteria (bifidobacteria): 1.6 × 10^5 per g of the feces; Viable count before (A) administration, bifidobacteria (bifidobacteria): 2.3 × 10^5 per g of the feces; activity to the proliferation of bifidobacteria, in words (bifidobacteria; mouse, oral, Table 7): did not exhibit such an activity |
| OC[C@H]1O[C@@H]2O[C@H]3[C@H](O)[C@@H](O)[C@@H](O[C@H]4[C@H](O)[C@@H](O)[C@@H](O[C@H]5[C@H](O)[C@@H](O)[C@@H](O[C@H]6[C@H](O)[C@@H](O)[C@@H](O[C@H]7[C@H](O)[C@@H](O)[C@@H](O[C@H]1[C@H](O)[C@H]2O)O[C@@H]7CO)O[C@@H]6CO)O[C@@H]5CO)O[C@@H]4CO)O[C@@H]3CO [α-cyclodextrin] | > 900 | > 900 | > 12500 | > 900 | > 12500 | > 900 | – | – | – | – | – | – | > 1200 | > 1500 | > 12000 | > 1200 | > 12000 | > 1500 | – | – | – |
